Reference: US20260232767A1, “INTERLEUKIN-23 RECEPTOR ANTAGONIST PEPTIDES FOR USE IN THE TREATMENT OF PSORIASIS” (Janssen Pharmaceutica NV, priority 2023, published 2026)

Tested on: subjects with moderate-to-severe plaque psoriasis
Assay: PSSD symptom and sign scores, Example 2
Type: in vivo, human
Details: for Change from Baseline in PSSD Sign Score, LSMean / Change from Baseline in PSSD Symptom Score, LSMean: MMRM

Structure (SMILES): CC(=O)NCCCC[C@@H]1NC(=O)[C@H](Cc2c[nH]c3c(C)cccc23)NC(=O)[C@H]([C@@H](C)O)NC(=O)[C@H](CC(N)=O)NC(=O)[C@@H](NC(C)=O)C(C)(C)SSC(C)(C)[C@@H](C(=O)N[C@@H](Cc2ccc(OCCN)cc2)C(=O)N[C@@H](Cc2ccc3ccccc3c2)C(=O)NC2(C(=O)N[C@@H](CCC(=O)O)C(=O)N[C@@H](CC(N)=O)C(=O)N[C@@H](Cc3cccnc3)C(=O)N(C)CC(N)=O)CCOCC2)NC1=O [IL-23 receptor antagonist peptide, Ac-[Pen]*-N-T-[W(7-Me)]-[Lys(Ac)]-[Pen]*-Phe[4-(2-aminoethoxy)]-[2-Nal]-[THP]-E-N-[3-Pal]-Sarc-NH2 (*[Pen]-[Pen]* formdisulfidebond)]
- Subjects Achieving PSSD Sign Score 0 (%) (Week 16, 25 mg QD, Baseline Sign Score ≥1, N=43): (2.3%)
- Subjects Achieving PSSD Symptom Score 0 (%) (Week 16, 25 mg QD, Baseline Symptom Score ≥1, N=43): (16.3%)
- Change from Baseline in PSSD Sign Score, LSMean (Week 16, 25 mg QD): −31.7
- Change from Baseline in PSSD Symptom Score, LSMean (Week 16, 25 mg QD): −28.0
- Change from Baseline in PSSD Sign Score, Mean (Week 16, 50 mg QD): −42.7
- Change from Baseline in PSSD Sign Score, Median (Week 16, 50 mg QD): −43.0
- Change from Baseline in PSSD Symptom Score, Mean (Week 16, 50 mg QD): −36.7
- Change from Baseline in PSSD Symptom Score, Median (Week 16, 50 mg QD): −36.0
- Subjects Achieving PSSD Sign Score 0 (%) (Week 16, 50 mg QD, Baseline Sign Score ≥1, N=43): (14.0%)
- Subjects Achieving PSSD Symptom Score 0 (%) (Week 16, 50 mg QD, Baseline Symptom Score ≥1, N=42): (23.8%)
- Change from Baseline in PSSD Sign Score, LSMean (Week 16, 50 mg QD): −42.9
- Change from Baseline in PSSD Symptom Score, LSMean (Week 16, 50 mg QD): −35.4
- Change from Baseline in PSSD Sign Score, Mean (Week 16, 100 mg BID): −51.1
- Change from Baseline in PSSD Sign Score, Median (Week 16, 100 mg BID): −55.0
- Change from Baseline in PSSD Symptom Score, Mean (Week 16, 100 mg BID): −44.0
- Change from Baseline in PSSD Symptom Score, Median (Week 16, 100 mg BID): −42.0
- Subjects Achieving PSSD Sign Score 0 (%) (Week 16, 100 mg BID, Baseline Sign Score ≥1, N=42): (14.3%)
- Subjects Achieving PSSD Symptom Score 0 (%) (Week 16, 100 mg BID, Baseline Symptom Score ≥1, N=42): (26.2%)
- Change from Baseline in PSSD Sign Score, LSMean (Week 16, 100 mg BID): −50.6
- Change from Baseline in PSSD Symptom Score, LSMean (Week 16, 100 mg BID): −40.2
- Change from Baseline in PSSD Sign Score, Median (Week 16, 100 mg QD): −45.0
- Change from Baseline in PSSD Symptom Score, Mean (Week 16, 100 mg QD): −29.4
- Change from Baseline in PSSD Symptom Score, Median (Week 16, 100 mg QD): −31.0
- Subjects Achieving PSSD Sign Score 0 (%) (Week 16, 100 mg QD, Baseline Sign Score ≥1, N=43): (16.3%)
- Subjects Achieving PSSD Symptom Score 0 (%) (Week 16, 100 mg QD, Baseline Symptom Score ≥1, N=43): (27.9%)
- Change from Baseline in PSSD Sign Score, LSMean (Week 16, 100 mg QD): −45.3
- Change from Baseline in PSSD Symptom Score, LSMean (Week 16, 100 mg QD): −36.8
- Change from Baseline in PSSD Sign Score, Mean (Week 24, 25 mg BID): −39.8
- Change from Baseline in PSSD Sign Score, Median (Week 24, 25 mg BID): −41.0
- Change from Baseline in PSSD Symptom Score, Mean (Week 24, 25 mg BID): −33.3
- Change from Baseline in PSSD Symptom Score, Median (Week 24, 25 mg BID): −29.0
- Subjects Achieving PSSD Sign Score 0 (%) (Week 24, 25 mg BID, Baseline Sign Score ≥1, N=41): (4.9%)
- Subjects Achieving PSSD Symptom Score 0 (%) (Week 24, 25 mg BID, Baseline Symptom Score ≥1, N=41): (7.3%)
- Change from Baseline in PSSD Sign Score, LSMean (Week 24, 25 mg BID): −37.7
- Change from Baseline in PSSD Symptom Score, LSMean (Week 24, 25 mg BID): −32.1
- Change from Baseline in PSSD Sign Score, Mean (Week 24, 25 mg QD): −38.6
- Change from Baseline in PSSD Sign Score, Median (Week 24, 25 mg QD): −44.5
- Change from Baseline in PSSD Symptom Score, Mean (Week 24, 25 mg QD): −32.9
- Change from Baseline in PSSD Symptom Score, Median (Week 24, 25 mg QD): −33.0
- Subjects Achieving PSSD Sign Score 0 (%) (Week 24, 25 mg QD, Baseline Sign Score ≥1, N=43): (14.0%)
- Subjects Achieving PSSD Symptom Score 0 (%) (Week 24, 25 mg QD, Baseline Symptom Score ≥1, N=43): (20.9%)
- Change from Baseline in PSSD Sign Score, LSMean (Week 24, 25 mg QD): −31.6
- Change from Baseline in PSSD Symptom Score, LSMean (Week 24, 25 mg QD): −25.3
- Change from Baseline in PSSD Sign Score, Mean (Week 24, 50 mg QD): −45.7
- Change from Baseline in PSSD Sign Score, Median (Week 24, 50 mg QD): −47.5
- Change from Baseline in PSSD Symptom Score, Mean (Week 24, 50 mg QD): −38.8
- Change from Baseline in PSSD Symptom Score, Median (Week 24, 50 mg QD): −40.0
- Subjects Achieving PSSD Sign Score 0 (%) (Week 24, 50 mg QD, Baseline Sign Score ≥1, N=43): (9.3%)
- Subjects Achieving PSSD Symptom Score 0 (%) (Week 24, 50 mg QD, Baseline Symptom Score ≥1, N=42): (14.3%)
- Change from Baseline in PSSD Sign Score, LSMean (Week 24, 50 mg QD): −45.3
- Change from Baseline in PSSD Symptom Score, LSMean (Week 24, 50 mg QD): −36.3
- Change from Baseline in PSSD Sign Score, Mean (Week 24, 100 mg BID): −51.6
- Change from Baseline in PSSD Sign Score, Median (Week 24, 100 mg BID): −53.0
- Change from Baseline in PSSD Symptom Score, Mean (Week 24, 100 mg BID): −44.8
- Change from Baseline in PSSD Symptom Score, Median (Week 24, 100 mg BID): −44.0
- Subjects Achieving PSSD Sign Score 0 (%) (Week 24, 100 mg BID, Baseline Sign Score ≥1, N=42): (19.0%)
- Subjects Achieving PSSD Symptom Score 0 (%) (Week 24, 100 mg BID, Baseline Symptom Score ≥1, N=42): (21.4%)
- Change from Baseline in PSSD Sign Score, LSMean (Week 24, 100 mg BID): −50.0
- Change from Baseline in PSSD Symptom Score, LSMean (Week 24, 100 mg BID): −40.3
- Change from Baseline in PSSD Sign Score, Mean (Week 24, 100 mg QD): −41.9
- Change from Baseline in PSSD Sign Score, Median (Week 24, 100 mg QD): −44.0
- Change from Baseline in PSSD Symptom Score, Mean (Week 24, 100 mg QD): −28.4
- Change from Baseline in PSSD Symptom Score, Median (Week 24, 100 mg QD): −26.0
- Subjects Achieving PSSD Sign Score 0 (%) (Week 24, 100 mg QD, Baseline Sign Score ≥1, N=43): (11.6%)
- Subjects Achieving PSSD Symptom Score 0 (%) (Week 24, 100 mg QD, Baseline Symptom Score ≥1, N=43): (25.6%)
- Change from Baseline in PSSD Sign Score, LSMean (Week 24, 100 mg QD): −46.3
- Change from Baseline in PSSD Symptom Score, LSMean (Week 24, 100 mg QD): −36.4
- Change from Baseline in PSSD Sign Score, Mean (Week 24, Placebo → 100 mg QD): −40.2
- Change from Baseline in PSSD Sign Score, Median (Week 24, Placebo → 100 mg QD): −40.0
- Change from Baseline in PSSD Symptom Score, Mean (Week 24, Placebo → 100 mg QD): −26.6
- Change from Baseline in PSSD Symptom Score, Median (Week 24, Placebo → 100 mg QD): −26.0
- Subjects Achieving PSSD Sign Score 0 (%) (Week 24, Placebo → 100 mg QD, Baseline Sign Score ≥1, crossed-over subjects only): (8.6%)
- Subjects Achieving PSSD Symptom Score 0 (%) (Week 24, Placebo → 100 mg QD, Baseline Symptom Score ≥1, crossed-over subjects only): (11.4%)
- Change from Baseline in PSSD Sign Score, LSMean (Week 24, Placebo → 100 mg QD): −40.3
- Change from Baseline in PSSD Symptom Score, LSMean (Week 24, Placebo → 100 mg QD): −29.2
- Change from Baseline in PSSD Sign Score, Mean (Week 32, 25 mg BID): −38.3
- Change from Baseline in PSSD Sign Score, Median (Week 32, 25 mg BID): −38.0
- Change from Baseline in PSSD Symptom Score, Mean (Week 32, 25 mg BID): −31.0
- Change from Baseline in PSSD Symptom Score, Median (Week 32, 25 mg BID): −28.0
- Subjects Achieving PSSD Sign Score 0 (%) (Week 32, 25 mg BID, Baseline Sign Score ≥1, N=41): (4.9%)
- Subjects Achieving PSSD Symptom Score 0 (%) (Week 32, 25 mg BID, Baseline Symptom Score ≥1, N=41): (7.3%)
- Change from Baseline in PSSD Sign Score, LSMean (Week 32, 25 mg BID): −38.9
- Change from Baseline in PSSD Symptom Score, LSMean (Week 32, 25 mg BID): −31.4
- Change from Baseline in PSSD Sign Score, Mean (Week 32, 25 mg QD): −37.2
- Change from Baseline in PSSD Sign Score, Median (Week 32, 25 mg QD): −39.0
- Change from Baseline in PSSD Symptom Score, Mean (Week 32, 25 mg QD): −32.5
- Change from Baseline in PSSD Symptom Score, Median (Week 32, 25 mg QD): −32.0
- Subjects Achieving PSSD Sign Score 0 (%) (Week 32, 25 mg QD, Baseline Sign Score ≥1, N=43): (9.3%)
- Subjects Achieving PSSD Symptom Score 0 (%) (Week 32, 25 mg QD, Baseline Symptom Score ≥1, N=43): (20.9%)
- Change from Baseline in PSSD Sign Score, LSMean (Week 32, 25 mg QD): −31.3
- Change from Baseline in PSSD Symptom Score, LSMean (Week 32, 25 mg QD): −26.2
- Change from Baseline in PSSD Sign Score, Mean (Week 32, 50 mg QD): −39.7
- Change from Baseline in PSSD Sign Score, Median (Week 32, 50 mg QD): −45.0
- Change from Baseline in PSSD Symptom Score, Mean (Week 32, 50 mg QD): −35.9
- Change from Baseline in PSSD Symptom Score, Median (Week 32, 50 mg QD): −32.0
- Subjects Achieving PSSD Sign Score 0 (%) (Week 32, 50 mg QD, Baseline Sign Score ≥1, N=43): (9.3%)
- Subjects Achieving PSSD Symptom Score 0 (%) (Week 32, 50 mg QD, Baseline Symptom Score ≥1, N=42): (14.3%)
- Change from Baseline in PSSD Sign Score, LSMean (Week 32, 50 mg QD): −39.0
- Change from Baseline in PSSD Symptom Score, LSMean (Week 32, 50 mg QD): −32.9
- Change from Baseline in PSSD Sign Score, Mean (Week 32, 100 mg BID): −52.3
- Change from Baseline in PSSD Sign Score, Median (Week 32, 100 mg BID): −54.0
- Change from Baseline in PSSD Symptom Score, Mean (Week 32, 100 mg BID): −45.5
- Change from Baseline in PSSD Symptom Score, Median (Week 32, 100 mg BID): −47.0
- Subjects Achieving PSSD Sign Score 0 (%) (Week 32, 100 mg BID, Baseline Sign Score ≥1, N=42): (21.4%)
- Subjects Achieving PSSD Symptom Score 0 (%) (Week 32, 100 mg BID, Baseline Symptom Score ≥1, N=42): (23.8%)
- Change from Baseline in PSSD Sign Score, LSMean (Week 32, 100 mg BID): −51.0
- Change from Baseline in PSSD Symptom Score, LSMean (Week 32, 100 mg BID): −40.9
- Change from Baseline in PSSD Sign Score, Mean (Week 32, 100 mg QD): −42.3
- Change from Baseline in PSSD Sign Score, Median (Week 32, 100 mg QD): −43.0
